From ChEMBL document CHEMBL6127139, “Lysine-Targeted Covalent Inhibitors of PI3Kδ Synthesis and Screening by In Situ Interaction Upgradation” (J Med Chem, 2024)

Legend:
[1] = Chemical reactivity of the compound with N-Boc-Lysine assessed as half-life at 1 uM by HPLC analysis; assay type: physicochemical; conditions: incubation with N-Boc-Lysine
[2] = molecular target: T1, Phosphatidylinositol 4,5-bisphosphate 3-kinase catalytic subunit delta isoform (Homo sapiens, UniProt O00329); assay: Inhibition of recombinant PI3Kdelta (unknown origin) using PIP2:3PS as substrate preincubated for 20 mins followed by ATP addition and measured after 1 hrs by ADP-Glo reagent based assay
T1 sequence (O00329 whole entry): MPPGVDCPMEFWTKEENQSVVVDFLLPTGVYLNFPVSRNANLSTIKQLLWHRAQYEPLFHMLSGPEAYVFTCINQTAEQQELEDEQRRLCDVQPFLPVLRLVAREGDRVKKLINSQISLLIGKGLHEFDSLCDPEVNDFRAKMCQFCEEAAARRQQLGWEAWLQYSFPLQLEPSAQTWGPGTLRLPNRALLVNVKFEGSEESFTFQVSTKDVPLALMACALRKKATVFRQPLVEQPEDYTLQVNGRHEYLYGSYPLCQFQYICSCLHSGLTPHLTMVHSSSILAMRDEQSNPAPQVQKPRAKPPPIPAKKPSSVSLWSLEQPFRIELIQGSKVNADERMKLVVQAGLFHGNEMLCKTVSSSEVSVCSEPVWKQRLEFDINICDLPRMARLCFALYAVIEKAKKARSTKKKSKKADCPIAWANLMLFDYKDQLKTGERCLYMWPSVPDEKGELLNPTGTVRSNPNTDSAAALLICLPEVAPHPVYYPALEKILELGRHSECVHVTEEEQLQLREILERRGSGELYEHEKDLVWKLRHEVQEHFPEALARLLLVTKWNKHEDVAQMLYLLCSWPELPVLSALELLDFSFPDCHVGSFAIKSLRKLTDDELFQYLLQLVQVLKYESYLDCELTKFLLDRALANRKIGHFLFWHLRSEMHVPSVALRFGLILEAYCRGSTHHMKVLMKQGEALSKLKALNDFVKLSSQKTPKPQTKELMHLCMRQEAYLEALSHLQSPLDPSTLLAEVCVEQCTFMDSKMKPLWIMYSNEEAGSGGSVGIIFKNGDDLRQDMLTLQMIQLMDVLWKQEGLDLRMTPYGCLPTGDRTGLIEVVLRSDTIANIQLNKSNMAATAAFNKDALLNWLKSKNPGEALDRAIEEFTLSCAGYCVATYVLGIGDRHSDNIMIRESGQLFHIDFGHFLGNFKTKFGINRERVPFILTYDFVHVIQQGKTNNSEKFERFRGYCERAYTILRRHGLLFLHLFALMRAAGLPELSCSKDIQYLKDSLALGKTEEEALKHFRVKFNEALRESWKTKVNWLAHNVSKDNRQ

[3] = Growth inhibition of PI3Kdelta-overexpressing human SU-DHL-6 cells incubated for 72 hrs by MTT assay; assay type: functional
[4] = Growth inhibition of PI3Kdelta-overexpressing human Pfeiffer cells incubated for 72 hrs by MTT assay; assay type: functional
[5] = molecular target: Phosphatidylinositol 4,5-bisphosphate 3-kinase catalytic subunit alpha isoform (Homo sapiens, UniProt P42336); assay: Inhibition of recombinant PI3Kalpha (unknown origin) using PIP2:3PS as substrate preincubated for 20 mins followed by ATP addition and measured after 1 hrs by ADP-Glo reagent based assay
Sequence of Phosphatidylinositol 4,5-bisphosphate 3-kinase catalytic subunit alpha isoform (P42336 whole entry, canonical isoform): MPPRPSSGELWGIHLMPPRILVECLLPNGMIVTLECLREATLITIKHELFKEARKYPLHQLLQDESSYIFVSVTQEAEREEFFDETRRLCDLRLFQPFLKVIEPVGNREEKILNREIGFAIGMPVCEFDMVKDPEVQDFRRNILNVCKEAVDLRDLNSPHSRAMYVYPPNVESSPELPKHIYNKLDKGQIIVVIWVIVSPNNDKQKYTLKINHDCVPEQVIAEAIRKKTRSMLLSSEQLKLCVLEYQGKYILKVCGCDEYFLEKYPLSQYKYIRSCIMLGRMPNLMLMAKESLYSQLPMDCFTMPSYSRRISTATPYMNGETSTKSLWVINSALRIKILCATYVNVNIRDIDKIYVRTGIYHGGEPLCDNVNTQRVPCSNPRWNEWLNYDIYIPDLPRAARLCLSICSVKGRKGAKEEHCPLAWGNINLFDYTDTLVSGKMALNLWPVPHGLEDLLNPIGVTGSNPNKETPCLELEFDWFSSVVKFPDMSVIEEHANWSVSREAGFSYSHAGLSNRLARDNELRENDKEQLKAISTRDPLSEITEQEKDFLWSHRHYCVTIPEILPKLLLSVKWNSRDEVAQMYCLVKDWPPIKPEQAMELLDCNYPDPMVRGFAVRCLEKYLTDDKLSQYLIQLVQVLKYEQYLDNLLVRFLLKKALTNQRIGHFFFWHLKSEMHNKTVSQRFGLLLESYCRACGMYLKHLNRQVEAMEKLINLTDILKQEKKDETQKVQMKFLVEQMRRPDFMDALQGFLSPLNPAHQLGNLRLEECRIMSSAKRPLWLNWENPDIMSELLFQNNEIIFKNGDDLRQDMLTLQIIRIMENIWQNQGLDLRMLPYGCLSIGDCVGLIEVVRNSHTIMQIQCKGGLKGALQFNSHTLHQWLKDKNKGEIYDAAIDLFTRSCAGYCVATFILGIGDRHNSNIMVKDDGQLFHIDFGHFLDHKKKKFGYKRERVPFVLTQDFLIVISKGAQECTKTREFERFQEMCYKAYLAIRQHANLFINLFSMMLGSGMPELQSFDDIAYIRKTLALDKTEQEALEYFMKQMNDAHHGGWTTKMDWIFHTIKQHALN

Row | SMILES | half-life at 1 µM [1] [min] | IC50 [2] [nM] | GI50 [3] [nM] | GI50 [4] [nM] | IC50 [5] [nM]
1 | O=Cc1cc(-c2ccc3ncnc(N[C@H]4CCN(C(=O)C5CCOCC5)C4)c3n2)ccc1O | < 1 | 5.58 | 710 | 5480 | 
2 | COc1ncc(-c2ccc3ncnc(N[C@H]4CCN(C(=O)C5CCOCC5)C4)c3c2)cc1C(=O)Oc1ccc(F)cc1F | 3.1 | 1.47 | 64 | 433 | 39.3
3 | COc1ccc(OC(=O)c2cc(-c3ccc4ncnc(N[C@H]5CCN(C(=O)C6CCOCC6)C5)c4n3)cnc2OC)cc1 | 359 | 1.17 | 8 | 138 | 54.2
4 | COc1ncc(-c2ccc3ncnc(N[C@H]4CCN(C(=O)C5CCOCC5)C4)c3n2)cc1C(=O)Oc1ccc(F)cc1F | 3.2 | 3.19 | 31 | 420 | 29.8
5 | COc1ncc(-c2ccc3ncnc(N[C@H]4CCN(C(=O)C5CCOCC5)C4)c3c2)cc1CCl | 420 | 24.2 | 310 | 490 | 
6 | COc1ncc(-c2ccc3ncnc(N[C@H]4CCN(C(=O)C5CCOCC5)C4)c3c2)cc1C(=O)Oc1c(F)cc(F)cc1F | < 1 | 1.08 | 32 | 260 | 86.9
7 | O=Cc1cc(-c2ccc3ncnc(N[C@H]4CCN(C(=O)C5CCOCC5)C4)c3c2)ccc1O | < 1 | 6.46 | 320 | 7780 | 
8 | C=CC(=O)Nc1cc(-c2ccc3ncnc(N[C@H]4CCN(C(=O)C5CCOCC5)C4)c3c2)cnc1OC | > 1440 | 8.59 | 710 | 1520 | 
9 | COc1ncc(-c2ccc3ncnc(N[C@H]4CCN(C(=O)C5CCOCC5)C4)c3c2)cc1C(=O)Oc1ccc([N+](=O)[O-])cc1 | < 1 | 6.6 | 52 | 575 | 120
10 | COc1ncc(-c2ccc3ncnc(N[C@H]4CCN(C(=O)C5CCOCC5)C4)c3n2)cc1C(=O)Oc1ccc([N+](=O)[O-])cc1 | < 1 | 2.31 | 20 | 788 | 10.4
11 | COc1ncc(-c2ccc3ncnc(N[C@H]4CCN(C(=O)C5CCOCC5)C4)c3c2)cc1C(=O)Oc1ccc(C#N)cc1 | < 1 | 4.53 | 27 | 479 | > 1000
12 | COc1ncc(-c2ccc3ncnc(N[C@H]4CCN(C(=O)C5CCOCC5)C4)c3n2)cc1C(=O)Oc1ccc(C)cc1 | 326 | 6.11 | 8 | 139 | 13.5
13 | COc1ncc(-c2ccc3ncnc(N[C@H]4CCN(C(=O)C5CCOCC5)C4)c3n2)cc1C(=O)Oc1c(F)cc(F)cc1F | < 1 | 4.93 | 65 | 438 | > 1000
14 | COc1ncc(-c2ccc3ncnc(N[C@H]4CCN(C(=O)C5CCOCC5)C4)c3n2)cc1C(=O)Oc1cccnc1 | 2.8 | 0.7 | 122 | 662 | 254
15 | COc1ncc(-c2ccc3ncnc(N[C@H]4CCN(C(=O)C5CCOCC5)C4)c3n2)cc1C(=O)Oc1ccc(C#N)cc1 | < 1 | 1.86 | 32 | 425 | 51.4
16 | COc1ccc(OC(=O)c2cc(-c3ccc4ncnc(N[C@H]5CCN(C(=O)C6CCOCC6)C5)c4c3)cnc2OC)cc1 | 387 | 2.02 | 6 | 225 | 56.5
17 | COC(=O)c1cc(-c2ccc3ncnc(N[C@H]4CCN(C(=O)C5CCOCC5)C4)c3c2)cnc1OC | > 1440 | 1.59 | 50 | 1240 | > 1000
18 | COc1ncc(-c2ccc3ncnc(N[C@H]4CCN(C(=O)C5CCOCC5)C4)c3c2)cc1C(=O)Oc1ccc(C)cc1 | 353 | 2.47 | 3 | 137 | 145
19 | COc1ncc(-c2ccc3ncnc(N[C@H]4CCN(C(=O)C5CCOCC5)C4)c3c2)cc1C(=O)Oc1ccc(Cl)cc1 | 12.7 | 0.79 | 16 | 276 | > 1000
20 | C=CC(=O)Nc1cc(-c2ccc3ncnc(N[C@H]4CCN(C(=O)C5CCOCC5)C4)c3n2)cnc1OC | > 1440 | 47.8 | 650 | 1190 | 
21 | COc1ncc(-c2ccc3ncnc(N[C@H]4CCN(C(=O)C5CCOCC5)C4)c3c2)cc1C=O | 2.1 | 48.8 | 170 | 200 | 
22 | COc1ncc(-c2ccc3ncnc(N[C@H]4CCN(C(=O)C5CCOCC5)C4)c3n2)cc1C(=O)Oc1ccc(Cl)cc1Cl | 1.1 | 1.42 | 53 | 752 | > 1000
23 | C#Cc1ccc(-c2ccc3ncnc(N[C@H]4CCN(C(=O)C5CCOCC5)C4)c3n2)cc1C=O | 2.1 | 1.48 | 430 | 2320 | 
24 | C#Cc1ccc(-c2ccc3ncnc(N[C@H]4CCN(C(=O)C5CCOCC5)C4)c3c2)cc1C=O | 1.9 | 2.67 | 850 | 4180 | 
25 | COc1ncc(-c2ccc3ncnc(N[C@H]4CCN(C(=O)C5CCOCC5)C4)c3c2)cc1C(=O)Oc1ccc(Cl)cc1Cl | 1.2 | 1.5 | 142 | 346 | 347
26 | COc1ncc(-c2ccc3ncnc(N[C@H]4CCN(C(=O)C5CCOCC5)C4)c3c2)cc1C(=O)Oc1cccnc1 | 2.5 | 0.26 | 19 | 199 | 663
27 | COc1ncc(-c2ccc3ncnc(N[C@H]4CCN(C(=O)C5CCOCC5)C4)c3n2)cc1CCl | 430 | 10.4 | 340 | 570 | 
28 | COc1ncc(-c2ccc3ncnc(N[C@H]4CCN(C(=O)C5CCOCC5)C4)c3n2)cc1C=O | 2.3 | 93.5 | 350 | 310 | 
